Melting point data for 87 compounds are collected here from a melting point compilation (Tetko et al.; mined from patent text by program, amines drawn as free bases though some values may be those of a salt).

Bounds are passed on as bounds.

What is called melting point is the temperature, or range, at which the solid turns liquid. Compound `COC(=O)C1=C(CO)NC(C)=C(C(=O)OC(C)C)C1c1ccccc1[N+](=O)[O-]` (configuration not stated) came in with a melting point of 135 to 137 °C.
Turning to `O=C(N[C@H](CCCO)c1nc(-c2ccccc2)c(-c2ccccc2)o1)OCc1ccccc1`, the melting point lay in the range of 72.3 to 75.1 °C.
Consider `COc1ccc(N2CCN(c3ccc(NC(=O)Oc4ccccc4)nc3)CC2)cc1`, for which the melting point lay within 130 to 132 °C.
As for `CN1CC2Cc3cc4c(cc3C(c3ccc([N+](=O)[O-])cc3)=NN2C1=O)OCO4` (configuration not stated), the figure is 252 to 255 °C; as for `NC(=O)c1n[nH]c(S(=O)(=O)c2ccccc2)n1`, 150 to 153 °C.
As to `COc1cc(-n2c(=O)cc(C(F)(F)F)[nH]c2=O)ccc1C#N`, the melting point was > 230 °C.
`CSc1nc2c(c(=O)[nH]1)CC2` registered a melting point of 215 °C.
As for `Cc1ccc(CC2CCN(C(=O)c3cc(=O)c4cc(O)ccc4[nH]3)CC2)cc1`, the figure is 152 °C; as for `O=C(O)CS(=O)(=O)CCCCCn1nc(-c2ccccc2)c(-c2ccccc2)c1-c1ccccc1`, 200 °C.
As to `Cn1ccc2cc(NC(=O)CC34CC5CC(CC(C5)C3)C4)ccc21`, the melting point was in the range of 183 to 184 °C.
As for `Cc1c(N)c(C)c(C(C)C)c2c1CC(C)(CI)O2` (configuration not stated), the figure is 84 to 86 °C.
As for `Cc1ccc(F)c(-c2cncc(OC3SCC(O)C(O)C3O)c2)c1` (configuration not stated), the figure is 198 °C; as for `Cc1cc(=O)c(-c2ccc(Oc3ccc(Cl)cc3)cc2)c(C)n1O`, 232 to 236 °C.
In the case of `COc1ccc2ncc3c(c2c1)[C@@H](O)C(OC)(OC)C[C@@H]3C`, the melting point was in the range of 135 to 136 °C.
The value for `CCCS(=O)(=O)Nc1ccc2c(c1)S(=O)(=O)C=C(c1c(O)c3cc(F)ccc3n(CCC3CC3)c1=O)N2` was 145 to 150 °C.
`CCN1CCC2(c3cccc(O)c3)Cc3[nH]c(C(=O)N4CCCC4)c(C)c3CC2C1` (configuration not stated) returned a melting point of 224 to 226 °C.
`COc1ccc2c(c1)C(=O)N(c1ccc3ncccc3c1)C2` registered a melting point of 194 to 197 °C.
Take `CCCCCCCN(CCO)c1cccc(O)c1`: the melting point was in the range of 45 to 47 °C.
As for `COc1cc(OC)c2c(=O)c(OCCCOc3ccc(C(C)=C4SC(=O)NC4=O)cc3)c(-c3ccc(OC)c(OC)c3)oc2c1`, the figure is 198 to 200 °C; as for `CCN(CC)c1nc(C)nc2nc(-c3ccncc3)[nH]c12`, 228 to 230 °C; as for `Nc1ccc(N=Nc2ccc([N+](=O)[O-])c(C(F)(F)F)c2)cc1`, 136 °C.
`C=CCN1CC(=O)N(c2cc(C(=O)NCCCOc3ccc(C(C)(C)CC)cc3C(C)(C)CC)c(O)c3ccccc23)C1=S` had a melting point of 204 to 205 °C.
Turning to `O=C(O)Cc1c(Cl)nc(-c2cccc(O)c2)n1Cc1ccccc1`, the melting point was in the range of 220 to 222 °C.
The compound `CC(C)Oc1cc(-n2nc(Cl)n(C(F)F)c2=O)c(Cl)cc1Cl` came in with a melting point of 115 to 119 °C.
Turning to `CCOC(=O)c1cc(Oc2ccc3c(C(=O)Nc4cccc(C(F)(F)F)c4)cccc3c2)ncn1`, the melting point came to 194 °C.
As for `Nc1ccn(C2COC(CO)C2O)c(=O)n1` (configuration not stated), the figure is 235 °C; as for `COc1cccc([C@@]23CCC[C@@H]2C(=O)N(C)CCC3)c1` (relative stereo), 96 to 99 °C.
In turn, `CCCCCC1=C(c2ccc(F)cc2)C(=NO)CC1` displayed a melting point of 101 to 102 °C.
Compound `COC(=O)c1c(C)c(OC)cc(OC)c1C=O` returned a melting point of 164 to 165 °C.
For `CN1Cc2c(C(=O)OC3CCCCC3)ncn2-c2cccc(Cl)c2C1=O`, the melting point lay within 208 to 209 °C.
With `O=c1c2ccc(Cl)cc2[nH]c2c(O)nn(Cc3cccc(-c4nnn[nH]4)c3)c(=O)c12`, the melting point is > 275 °C.
As for `CCCn1c(C)c2c(c1C)C(=O)C(C)=C(C)C2=O`, the figure is 165 to 167 °C.
As for `COC(=O)c1scc(-c2ccccc2)c1S(N)(=O)=O`, the figure is 172 to 175 °C.
As for `CC1(CNC(=O)OCc2ccccc2)CCCCn2c1nc(-c1ccncn1)cc2=O` (racemic), the figure is 118 to 120 °C; as for `CC(=O)SCC(Cc1ccccc1)C(=O)NN1CCSCC1` (configuration not stated), 138 °C.
`O=C1CCN(Cc2ccccc2O)CC1C(c1ccccc1)c1ccccc1` (configuration not stated) showed a melting point of 109 to 110 °C.
As for `COc1ccc(OC)c(-c2cn(C)cc(C#N)c2=O)c1`, the melting point was 209 to 211 °C.
With `O=S(=O)(c1cc(Cl)[nH]c1-c1ccc(Cl)cc1)C(F)(F)F`, the melting point lay in the range of 109 to 112 °C.
The value for `CCCP(=O)(CCC)Cc1ccc(N)cc1` was 104 to 106 °C; that for `CCc1nn(CC(=O)NN)c(CC)c1Oc1cc(Cl)cc(Cl)c1` was > 250 °C.
The value for `CCOC(=O)CCCCCCC(=O)Nc1ccc2c(c1)C(c1ccccc1)=N[C@@H](C)C(=O)N2C` was 55 to 56 °C.
For the compound `COc1cc(C)c(C(=O)c2ccc(OCc3nc(-c4ccccc4)oc3C)cc2)c(O[C@H](C)C(=O)O)c1`, the melting point fell in the range of 122 to 123 °C.
Compound `CCOC(=O)c1nc2sc(C(C)C)cc2c(=O)o1` showed a melting point of 87.5 to 88.5 °C.
The value for `Cc1nc(C)n(-c2cc([C@@H]3C[C@H]3c3nc4ccccc4n3C)nc(C3CC3)n2)n1` (relative stereo) was 180 to 182 °C.
`C[C@H]1O[C@@H](C(Cl)(Cl)Cl)OC(=O)[C@@H]1C` gave a melting point of 128 to 130 °C.
As for `COC(=O)CCCC(=O)c1ccc(OC)c(I)n1`, the figure is 111 °C.
In turn, `COc1cc2ncnc(N3c4ccccc4CC3CO)c2cc1OC` (configuration not stated) registered a melting point of 146 to 147 °C.
The value for `O=C1C2C[C@@H](OCc3ccccc3)CN2C(=O)N1c1ccc([N+](=O)[O-])c2ccccc12` (some centres not stated) was 120 to 122 °C; that for `N#CCC[C@H]1CC[C@@H](c2ccc(F)cc2)N1S(=O)(=O)c1ccc(Cl)cc1` (racemic) was 108 °C; that for `CC(O)(C1=CCNCC1)c1ccc(F)cc1` (configuration not stated) was 168 °C.
The value for `O=C(O)c1cc2cc(Cl)ccc2nc1N[C@@H](Cc1ccc(Oc2ccc(Br)cn2)cc1)C(=O)O` was 145 to 150 °C; that for `CN1CCC(c2c[nH]c3ccc(NS(=O)(=O)c4ccc(I)cc4)cc23)CC1` was > 250 °C; that for `COc1ccc(C2=NN(C3CCN(S(=O)(=O)c4ccc(C)cc4)CC3)C(=O)C(C)(C)C2)cc1OC` was 161 to 164 °C.
The value for `CC(C)(C)c1ccc(CC2OCCN(Cc3ccccc3)C2=O)cc1` (configuration not stated) was 190 to 193 °C; that for `CNNc1nncc(-c2ccccc2)n1` was 112 to 113 °C.
Compound `O=C(c1cc(Cl)c(Cl)cc1NS(=O)(=O)c1cccc2nsnc12)N1CCCCC1` gave a melting point of 178 to 179 °C.
Turning to `O=C(O)c1cn(C2CC2)c2c(F)c(N3CC(N4CCCC4)C3)c(F)cc2c1=O`, the melting point was in the range of 224 to 227 °C.
As for `CC(C)(C=O)N1C(=O)c2ccccc2C1=O`, the figure is 80 to 82 °C; as for `NCC1Cc2cc(C(F)(F)F)cc(-c3cccc(Cl)c3Cl)c2O1` (configuration not stated), 152 to 155 °C.
As for `COc1cc(Cc2cnc(N)nc2N)c2c(c1OC)OC(C)CC2=O` (configuration not stated), the figure is 128 to 132 °C; as for `Cc1nc(Nc2nc(N)nc(-c3ccccc3)c2-c2ccc(=O)n(C(C)C)n2)sc1C`, 256 to 258 °C; as for `CCOC(=O)C=C(C)c1ccc(-c2ccc(F)cc2F)cc1`, 54 to 56 °C.
`O=C(CBr)Nc1cc(Cl)ccc1C(=O)O` registered a melting point of 156 to 158 °C.
`C=C(c1ccc(-n2cncn2)nc1)C1(c2ccc(F)cc2F)CO1` (configuration not stated): the melting point was in the range of 120 to 122 °C.
The value for `C=CC[C@H](C(N)=O)[C@@H](CC(C)C)C(=O)NC1N=C(N2CCCCC2)c2ccccc2N(C)C1=O` (some centres not stated) was 231 to 238 °C; that for `CCOCN1C(C)=C(C(=O)OCC)C(c2cccc([N+](=O)[O-])c2)C(C(=O)OCCBr)=C1C` (configuration not stated) was 102 to 104 °C; that for `CCOC(=O)C(=O)Nc1ccc(NC(=O)C(=O)OCC)cc1` was 214 to 217 °C.
`CN(C)C1CCC(c2c[nH]c3ccc(NC(=N)c4cccs4)cc23)CC1` (configuration not stated) showed a melting point of 104 to 106 °C.
As for `CC(=O)N1CCC(CCC(=O)c2ccc3c(c2)CCN3C(C)=O)CC1`, the figure is 148 to 149 °C; as for `O=C(O)C(Cc1ccc(O)cc1)NC(=O)C(CS)C(F)(F)F` (configuration not stated), 184 to 187 °C.
As for `CC(C)(C)P(=O)(O)CCCN`, the figure is 253 to 255 °C; as for `CCCOc1ccc(/C=C/c2nc3c([nH]2)c(=O)n(CCC)c(=O)n3CCC)cc1`, 248 to 249 °C; as for `COc1ccc(-c2nc(N3CCOCC3)c3sc(CN(C)c4ncc(C(=O)NO)cn4)cc3n2)cn1`, 177 to 180 °C.
The value for `CCn1ncc2c(NCC3CCC(C(=O)OCSC)CC3)c3ccccc3nc21` (configuration not stated) was 135 to 136 °C; that for `Cc1cc([N+](=O)[O-])ccc1NCC1CCCO1` (configuration not stated) was 56 to 58 °C.
Take `Cn1c(COc2ccc(CC3SC(=O)N(C(c4ccccc4)(c4ccccc4)c4ccccc4)C3=O)cc2)nc2ccc(OCc3ccccc3)nc21` (configuration not stated): the melting point is 88 to 92 °C.
As for `CC(C)N1C(=O)c2cccc(Cl)c2N(C#N)S1(=O)=O`, the figure is 123 to 124 °C; as for `Cc1c(NC(=O)c2ccc(OC[C@@H]3CCCO3)cc2)ccc2cc(CNC3CCOCC3)cnc12`, 158 to 159 °C.
`CNC(=S)NCc1cc(-c2ccc(Cl)cc2)no1` displayed a melting point of 135 °C.
As for `COCN1C(=O)C(=C/c2ccccc2)/C(=C\c2cc(OC)c(OC)c(OC)c2)C1=O`, the figure is 127 to 128 °C.
Take `COc1ccc(CCNC(=O)N(O)C(C)C)cc1OC`: the melting point was in the range of 113 to 114 °C.
As to `CCOC(=O)C1=C(C)NC(C)=C(C(=O)OCCN2CCN(C(c3ccccc3)c3ccccc3)CC2)C1c1cccc([N+](=O)[O-])c1` (configuration not stated), the melting point was in the range of 80 to 82 °C.
The value for `O=C(Cc1ccc2ccccc2c1OCC1CO1)NCCO[N+](=O)[O-]` (configuration not stated) was 67 to 71 °C.
The value for `CCN1CCCC1CNC(=O)c1ccc(Nc2ncnc3cc(C(F)(F)F)ccc23)cc1` (configuration not stated) was 150 to 152 °C; that for `CC(C)c1cc(-c2ccc(F)c3ccc(F)cc23)nc(N)n1` was 103 to 105 °C; that for `Cc1csc2ncc(C(O)CCCCc3ccccc3)n12` (configuration not stated) was 120 to 121 °C.
Take `Nc1c(C=O)c(=O)n(-c2ccccc2)c(=O)n1-c1ccccc1`: the melting point fell in the range of 141 to 142 °C.
